In patent US20170151268A1, “GLYCAN THERAPEUTICS AND RELATED METHODS THEREOF” (KALEIDO BIOSCIENCES, INC., priority 2015, published 2017):
Values after ≈ are worked out from the molar mass of the structure shown.

Tests used:
[1] = 25° C., reported by Sigma-Aldrich; cited from earlier work
[2] = tested on: Clostridium difficile (strain VPI 10463 (ATCC-43255)); test: Mouse model of Clostridium difficile infection, disease-associated phenotypes; type: in vivo
Procedure: This experiment was conducted to analyze the effects of glycan therapeutics in a mouse model of Clostridium difficile infection (Chen et al, 2008, A Mouse Model of Clostridium difficile—Associated Disease. Gastroenterology 135(6), 1984-1992). In this model, normal mice were exposed to an antibiotic regimen that renders them susceptible to C. difficile infection and disease symptoms, similar with respect to their development and manifestation of human clinical disease. In humans, the disease is most often the result of exposure to broad spectrum antibiotics which is thought to result in intestinal dysbiosis and subsequent increased colonic colonization with C. difficile. The increased bio-burden of C. difficile leads to toxin production by the bacterium and colonic inflammation. Clinical manifestations in humans include diarrhea, weight loss, intestinal inflammation, fever and dehydration. The clinical incidence of C. difficile infection and disease is about 750,000 cases per year in the US.
(§1) Mice (female C57BL/6, 8-10 weeks old, 16-18 grams each; Harlan Laboratories, Indianapolis, Ind.) were housed in groups of 3 per cage, with 4 cages per treatment group. Mice were exposed to a cocktail of antibiotics in their drinking water for a period of 9 days, starting on day −14, fourteen days before Clostridium difficile challenge on day 0. The antibiotic cocktail consisted of 1% glucose, kanamycin (0.5 mg/ml), gentamicin (0.044 mg/ml), colistin (1062.5 U/ml), metronidazole (0.269 mg/ml), ciprofloxacin (0.156 mg/ml), ampicillin (0.1 mg/ml) and vancomycin (0.056 mg/ml). Three days prior to Clostridium difficile challenge (on Day −3), mice received a single dose of clindamycin (10 mg/kg) in a volume of 0.5 mL distilled water by oral gavage (PO) (see Table 10). All chemicals were purchased from Sigma-Aldrich Corp. (St. Louis, Mo.). On day 0, mice were challenged with Clostridium difficile (strain VPI 10463 (ATCC-43255)) spores at approximately 4.5 log10 spores per mouse, PO, in a dose volume of 0.5 mL distilled water.
Disease-associated phenotypes were recorded for a duration of ten days starting on the day of Clostridium difficile challenge (on day 0) through day 10. The phenotypes, including lethargy, hunched posture and ruffled coat, wet tail/abdomen and hypothermia were scored from 0 to 4: Normal=0; Lethargic=1; Lethargic+Hunched=2; Lethargic+Hunched+Wet tail/abdomen (diarrhea)=3; and Lethargic+Hunched+Wet tail/abdomen+Hypothermic=4. Death (day 0 to day 10 or 11) and weight (day 1 to day 7 and day 10) of the animals was also monitored and recorded.
In these studies, all animals with wet tail/abdomen (diarrhea; clinical score of “3”) progressed to death. Diarrhea is an indication of colonic inflammation and hemorrhage and is a contributing factor to the weight loss seen in rodent models of C. difficile colonization/infection.
A treatment's ability to protect animals from death through day 6 in these experiments indicates disease prevention, e.g., in a human.
In addition, carriage of Clostridium difficile spores, which is indicative of Clostridium difficile gut colonization in both mice and humans, was assessed daily from day 0 to day 6. For spore CFU enumeration, fecal pellets from the mice were suspended in 50% ethanol in phosphate-buffered saline (PBS) and vortexed. […]
Effects of treatments was assessed by comparing the disease-associated phenotypes in glycan-treated, untreated (plain water) and vancomycin-treated groups. […]

gut microbiota = test: Mouse model of Clostridium difficile infection, gut microbiota 16S rRNA sequencing; type: in vivo; conditions: Day 6; predicted from 16S rRNA sequencing using PICRUST
Procedure: as §1
To determine how the gut microbiota composition responds to treatment with glycan therapeutics, 16S rRNA sequencing of fecal pellets on the V4 variable region using standard protocols from the Earth Microbiome Project was performed (www.earthmicrobiome.org/emp-standard-protocols/). […]

SMILES	aqueous solubility [1] [mg/mL]	aqueous solubility as Brix [1] [Brix]	animals died by day 10 ([2]; PO gavage QD days 0 to 4) [%]	animals survived to day 7 ([2]; PO gavage QD days 0 to 4) [%]	clinical score of survivors (0 to 4) ([2]; after treatments were discontinued, through day 10 or 11)	C. difficile spores in the feces ([2]; days 0-6)	clinical signs on day 10 ([2]; mouse, in vivo)	predicted functional potential of the gut microbiome to convert primary bile acids to secondary bile acids (gut microbiota)
O=C[C@H](O)[C@@H](O)[C@H](O)[C@H](O)CO [D-glucose]	909 (≈ 5050 mM)	48	–	–	–	–	–	–
CN[C@H](CC(C)C)C(=O)N[C@H]1C(=O)N[C@@H](CC(N)=O)C(=O)N[C@H]2C(=O)N[C@H]3C(=O)N[C@H](C(=O)N[C@H](C(=O)O)c4cc(O)cc(O)c4-c4cc3ccc4O)[C@H](O)c3ccc(c(Cl)c3)Oc3cc2cc(c3O[C@@H]2O[C@H](CO)[C@@H](O)[C@H](O)[C@H]2O[C@H]2C[C@](C)(N)[C@H](O)[C@H](C)O2)Oc2ccc(cc2Cl)[C@H]1O [vancomycin]	–	–	17	100	above 0	no detectable spores	exhibited clinical signs	not observed
